Data as given in ChEMBL document CHEMBL1129993, “Synthesis and biological characterization of 1,4,5,6-tetrahydropyrimidine and 2-amino-3,4,5,6-tetrahydropyridine derivatives as selective m1 agonists” (J Med Chem, 1997).

Columns and labels:
[1] = molecular target: T1, Muscarinic acetylcholine receptor M1 (Mus musculus, UniProt P12657)
T1 sequence (P12657 whole entry): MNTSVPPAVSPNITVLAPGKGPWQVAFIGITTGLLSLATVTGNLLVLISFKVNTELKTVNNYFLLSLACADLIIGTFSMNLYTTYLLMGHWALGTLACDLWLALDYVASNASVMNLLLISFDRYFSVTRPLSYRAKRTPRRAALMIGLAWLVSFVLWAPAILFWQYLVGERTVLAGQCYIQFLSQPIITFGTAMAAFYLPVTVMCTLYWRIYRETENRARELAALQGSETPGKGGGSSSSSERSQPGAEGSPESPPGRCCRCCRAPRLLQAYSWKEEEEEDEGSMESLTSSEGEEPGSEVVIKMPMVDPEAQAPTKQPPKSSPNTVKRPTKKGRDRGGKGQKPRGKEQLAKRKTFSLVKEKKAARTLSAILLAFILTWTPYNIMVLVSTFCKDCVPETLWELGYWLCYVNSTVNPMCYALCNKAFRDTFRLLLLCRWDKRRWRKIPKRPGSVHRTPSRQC
Description: Tested against Muscarinic acetylcholine receptor M1 expressed in A9 L cell line

[2] = molecular target: T1, Muscarinic acetylcholine receptor M1; assay: biochemical
[3] = molecular target: Muscarinic acetylcholine receptor M3 (Mus musculus, UniProt Q9ERZ3)
Description: Tested against Muscarinic acetylcholine receptor M3 expressed in A9 L cell line

[4] = molecular target: T1, Muscarinic acetylcholine receptor M1; assay: biochemical; remark: listed apart in the source
[5] = molecular target: T1, Muscarinic acetylcholine receptor M1; assay: biochemical; remark: listed apart in the source
A9 = assay: cells; details: Mus musculus, A9L
Description: Inhibition of Forskolin-Induced cAMP production in A9 L cells expressing m2 receptors

Rattus norvegicus = species: Rattus norvegicus; assay: Tested for agonist activity through assays of phosphoinositide (PI) metabolism in slices from rat cerebral cortex at 100 uM; type: functional

Muscarinic acetylcholine receptor M3, sequence (Q9ERZ3 whole entry): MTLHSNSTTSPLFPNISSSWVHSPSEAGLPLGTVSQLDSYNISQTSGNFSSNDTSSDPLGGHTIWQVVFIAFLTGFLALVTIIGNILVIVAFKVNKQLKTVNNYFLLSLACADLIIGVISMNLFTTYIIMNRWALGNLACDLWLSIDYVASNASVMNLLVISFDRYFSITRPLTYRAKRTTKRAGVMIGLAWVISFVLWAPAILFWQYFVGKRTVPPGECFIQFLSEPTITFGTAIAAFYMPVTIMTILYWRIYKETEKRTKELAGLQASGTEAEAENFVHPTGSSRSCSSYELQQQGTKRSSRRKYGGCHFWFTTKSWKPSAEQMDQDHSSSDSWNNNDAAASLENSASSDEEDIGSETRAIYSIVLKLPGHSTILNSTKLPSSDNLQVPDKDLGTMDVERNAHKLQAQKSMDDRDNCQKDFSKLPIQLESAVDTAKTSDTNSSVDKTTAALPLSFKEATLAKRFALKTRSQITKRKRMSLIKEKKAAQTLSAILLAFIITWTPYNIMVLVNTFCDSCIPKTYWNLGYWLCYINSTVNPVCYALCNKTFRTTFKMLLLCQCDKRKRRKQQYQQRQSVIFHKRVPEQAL

Row | Structure (SMILES) | EC50 [1] | EC50 [3] | Ki [2] | Ki [4] | Ki [5] | IC50 (A9) | Activity (Rattus norvegicus)
1 | COC(=O)C1CN=CNC1 (configuration not stated) | 200 µM | 50 µM | 359 nM | 26.8 nM | 23.6 nM | 1600 nM | 
2 | C[N+](C)(C)CC#CCN1CCCC1=O [OXOTREMORINE METHIODIDE] | 0.7 µM |  |  |  |  |  | 
3 | CCCCCCOc1nsnc1C1=CCCN(C)C1 [XANOMELINE] |  | 11 µM |  |  |  | 7000 nM | 
4 | C#CCCOC(=O)C1CN=CNC1 (configuration not stated) | 560 µM |  | 30.9 nM |  | 15.5 nM |  | 
5 | O=C1CCCN1CC#CCN1CCCC1 [OXOTREMORINE] | 0.27 µM |  |  |  |  |  | 
6 | CC#CCOC(=O)C1CN=CNC1 (configuration not stated) | 50 µM |  | 14 nM |  | 9.01 nM |  | 
7 | C#CCOC(=O)C1CN=CNC1 (configuration not stated) | 33 µM | 18 µM | 41.7 nM |  | 2.88 nM | 780 nM | 
8 | C[N+](C)(C)CCOC(N)=O.[Cl-] [CARBACHOL] |  | 9.9 µM |  |  |  | 100 nM | 470%
9 | Cc1noc(C2CN=CNC2)n1 (configuration not stated) | 5.4 µM | 1.1 µM | 21.1 nM | 2.5 nM | 2.31 nM | 110 nM | 
10 | CCCC#Cc1noc(C2CN=CNC2)n1 (configuration not stated) |  |  | 138 nM |  | 17.4 nM |  | 
11 | CCc1noc(C2CN=CNC2)n1 (configuration not stated) | 12 µM | 10 µM |  |  |  |  | 

Continued, in another order:

Row | EC50 [1] | EC50 [3] | Structure (SMILES) | Ki [2] | Ki [4] | Ki [5] | IC50 (A9) | Activity (Rattus norvegicus)
12 | 160 µM |  | COC(=O)C1CN=C(N)NC1 (configuration not stated) |  |  |  |  | 
13 | 300 µM |  | C#CCOC(=O)C1CN=C(N)NC1 (configuration not stated) |  |  |  |  | 
14 | 41 µM | 14 µM | COC(=O)C1CCC(N)=NC1 (configuration not stated) |  |  |  |  | 
15 | 12 µM | 2.8 µM | Cc1noc(C2=CCCN(C)C2)n1 |  | 1.05 nM | 0.589 nM | 1200 nM | 
16 | 116 µM | 12 µM | C#CCOC(=O)C1CCC(N)=NC1 (configuration not stated) |  |  |  | 440 nM | 
17 | 44 µM | 17 µM | CCOC(=O)C1CN=CNC1 (configuration not stated) |  |  |  |  | 
18 |  | 11 µM | COCc1noc(C2CN=CNC2)n1 (configuration not stated) |  |  |  |  | 
19 | 14 µM | 5.8 µM | CSCc1noc(C2CN=CNC2)n1 (configuration not stated) |  |  |  |  | 
20 | 80 µM |  | C#C/C(C)=C/COC(=O)C1CN=CNC1 (configuration not stated) |  |  |  |  | 
